Experiment [1] has as its target T1, RSK2(Kin.Dom.2-C-terminal) (Homo sapiens, UniProt P51812).
T1 construct: RSK2(Kin.Dom.2-C-terminal); purchased Eurofins DiscoverX KINOMEscan
Description: DiscoverX KINOMEscan binding assay at 1 μM, RSK2(Kin.Dom.2-C-terminal). The settings on record: RSK2(Kin.Dom.2-C-terminal) (RPS6KA3); Compound Concentration 1000 nM; read-out: Percent Control. The text has this:
(§1) Supplement cells-12-00287-s001.zip/File S2. KinomeScan data for the CAMKK2 probe and negative control.xlsx, sheet "SGC-CAMKK2-1" | column: Percent Control

In experiment [2] the target is T2, ULK2 (Homo sapiens, UniProt Q8IYT8).
T2 construct: purchased Eurofins DiscoverX KINOMEscan
Nature of the experiment: DiscoverX KINOMEscan binding assay at 1 μM, ULK2. To be noted: Compound Concentration 1000 nM, read-out: Percent Control.
From the text: as §1

Another experiment deals with T3, MERTK (Homo sapiens, UniProt Q12866).
T3 construct: purchased Eurofins DiscoverX KINOMEscan
Nature of the experiment: KINOMEscan 1 μM, MERTK. Format: binding. The settings on record: 1000 nM; Entrez MERTK; read-out: Percent Control.
From the text: as §1

In the next experiment the target is T4, INSRR (Homo sapiens, UniProt P14616).
T4 construct: purchased Eurofins DiscoverX KINOMEscan
Nature of the experiment: KINOMEscan 1 μM, INSRR. The format is binding. The settings on record: 1000 nM; Entrez INSRR; read-out: Percent Control.
From the text: as §1

The target of a further experiment is T5, GRK4 (Homo sapiens, UniProt P32298).
T5 construct: purchased Eurofins DiscoverX KINOMEscan
Description: KINOMEscan 1 μM, GRK4. To be noted: 1000 nM; Entrez GRK4; read-out: Percent Control. Format: binding.
From the text: as §1

For a further experiment, the target named is T6, MAP4K5 (Homo sapiens, UniProt Q9Y4K4).
T6 construct: purchased Eurofins DiscoverX KINOMEscan
Nature of the experiment: KINOMEscan 1 μM, MAP4K5. Format: binding. To be noted: 1000 nM; Entrez MAP4K5; read-out: Percent Control.
From the text: as §1

For another experiment, the target named is T7, BMPR1A (Homo sapiens, UniProt P36894).
T7 construct: purchased Eurofins DiscoverX KINOMEscan
Nature of the experiment: KINOMEscan 1 μM, BMPR1A. Format: binding. The settings on record: 1000 nM; Entrez BMPR1A; read-out: Percent Control.
From the text: as §1

In the next experiment the target is T8, CDK9 (Homo sapiens, UniProt P50750).
T8 construct: purchased Eurofins DiscoverX KINOMEscan
Nature of the experiment: KINOMEscan 1 μM, CDK9. The format is binding. To be noted: 1000 nM; Entrez CDK9; read-out: Percent Control.
From the text: as §1

The target of a further experiment is T9, FLT3(K663Q) (Homo sapiens, UniProt P36888, K663Q).
T9 construct: purchased Eurofins DiscoverX KINOMEscan
Nature of the experiment: KINOMEscan 1 μM, FLT3(K663Q). To be noted: 1000 nM; Entrez FLT3; read-out: Percent Control. The format is binding.
From the text: as §1

In another experiment the target is T10, KIT(V559D,T670I) (Homo sapiens, UniProt P10721, T670I/V559D).
T10 construct: purchased Eurofins DiscoverX KINOMEscan
Nature of the experiment: KINOMEscan 1 μM, KIT(V559D,T670I). Format: binding. To be noted: 1000 nM; Entrez KIT; read-out: Percent Control.
From the text: as §1

In the next experiment the target is T11, CSNK1G1 (Homo sapiens, UniProt Q9HCP0).
T11 construct: purchased Eurofins DiscoverX KINOMEscan
Nature of the experiment: KINOMEscan 1 μM, CSNK1G1. The format is binding. The settings on record: 1000 nM; Entrez CSNK1G1; read-out: Percent Control.
From the text: as §1

A further experiment has as its target T12, PRKG1 (Homo sapiens, UniProt Q13976).
T12 construct: purchased Eurofins DiscoverX KINOMEscan
Description: DiscoverX KINOMEscan binding assay at 1 μM, PRKG1. To be noted: Compound Concentration 1000 nM, read-out: Percent Control.
From the text: as §1

A further experiment concerns the target T13, MEK4 (Homo sapiens, UniProt P45985).
T13 construct: purchased Eurofins DiscoverX KINOMEscan
Description: KINOMEscan 1 μM, MEK4. The format is binding. To be noted: 1000 nM; Entrez MAP2K4; read-out: Percent Control.
From the text: as §1

For a further experiment, the target named is T14, ROS1 (Homo sapiens, UniProt P08922).
T14 construct: purchased Eurofins DiscoverX KINOMEscan
Description: KINOMEscan 1 μM, ROS1. Format: binding. The settings on record: 1000 nM; Entrez ROS1; read-out: Percent Control.
From the text: as §1

A further experiment deals with T15, TAOK1 (Homo sapiens, UniProt Q7L7X3).
T15 construct: purchased Eurofins DiscoverX KINOMEscan
Nature of the experiment: KINOMEscan 1 μM, TAOK1. The settings on record: 1000 nM; Entrez TAOK1; read-out: Percent Control. Format: binding.
From the text: as §1

The target in a further experiment is T16, FES (Homo sapiens, UniProt P07332).
T16 construct: purchased Eurofins DiscoverX KINOMEscan
Description: KINOMEscan 1 μM, FES. Format: binding. The settings on record: 1000 nM; Entrez FES; read-out: Percent Control.
From the text: as §1

The next experiment deals with T17, CAMK1D (Homo sapiens, UniProt Q8IU85).
T17 construct: purchased Eurofins DiscoverX KINOMEscan
Description: KINOMEscan at 1 μM, CAMK1D. The format is binding. To be noted: 1000 nM, read-out: Percent Control. The text has this:
(§2) Supplement cells-12-00287-s001.zip/File S2. KinomeScan data for the CAMKK2 probe and negative control.xlsx, sheet "SGC-CAMKK2-1N" | column: Percent Control

For the next experiment, the target named is T18, ERBB3 (Homo sapiens, UniProt P21860).
T18 construct: purchased Eurofins DiscoverX KINOMEscan
Nature of the experiment: KINOMEscan at 1 μM, ERBB3. The format is binding. The settings on record: 1000 nM, read-out: Percent Control.
From the text: as §2

Another experiment deals with T19, MRCKB (Homo sapiens, UniProt Q9Y5S2).
T19 construct: purchased Eurofins DiscoverX KINOMEscan
Description: KINOMEscan binding assay at 1 μM, MRCKB. The settings on record: Compound Concentration 1000 nM; read-out: Percent Control.
From the text: as §2

The target of a further experiment is T20, GAK (Homo sapiens, UniProt O14976).
T20 construct: purchased Eurofins DiscoverX KINOMEscan
Description: KINOMEscan at 1 μM, GAK. The format is binding. To be noted: 1000 nM, read-out: Percent Control.
From the text: as §2

Experiment [3] deals with T2, ULK2. Description: KINOMEscan at 1 μM, ULK2. Format: binding. To be noted: 1000 nM, read-out: Percent Control.
From the text: as §2

The target in the next experiment is T21, HASPIN (Homo sapiens, UniProt Q8TF76).
T21 construct: purchased Eurofins DiscoverX KINOMEscan
Description: KINOMEscan binding assay at 1 μM, HASPIN. The settings on record: Compound Concentration 1000 nM; read-out: Percent Control.
From the text: as §2

In a further experiment the target is T22, MAP3K1 (Homo sapiens, UniProt Q13233).
T22 construct: purchased Eurofins DiscoverX KINOMEscan
Description: KINOMEscan at 1 μM, MAP3K1. Format: binding. The settings on record: 1000 nM, read-out: Percent Control.
From the text: as §2

In another experiment the target is T23, PKAC-alpha (Homo sapiens, UniProt P17612).
T23 construct: purchased Eurofins DiscoverX KINOMEscan
Nature of the experiment: KINOMEscan binding assay at 1 μM, PKAC-alpha. To be noted: Compound Concentration 1000 nM; read-out: Percent Control.
From the text: as §2

The target in another experiment is T24, JNK1 (Homo sapiens, UniProt P45983).
T24 construct: purchased Eurofins DiscoverX KINOMEscan
Description: KINOMEscan at 1 μM, JNK1. The format is binding. The settings on record: 1000 nM, read-out: Percent Control.
From the text: as §2

For the next experiment, the target named is T25, WEE2 (Homo sapiens, UniProt P0C1S8).
T25 construct: purchased Eurofins DiscoverX KINOMEscan
Description: KINOMEscan at 1 μM, WEE2. The format is binding. To be noted: 1000 nM, read-out: Percent Control.
From the text: as §2

The target of a further experiment is T26, NEK11 (Homo sapiens, UniProt Q8NG66).
T26 construct: purchased Eurofins DiscoverX KINOMEscan
Nature of the experiment: KINOMEscan at 1 μM, NEK11. Format: binding. To be noted: 1000 nM, read-out: Percent Control.
From the text: as §2

In a further experiment the target is T27, AURKA (Homo sapiens, UniProt O14965).
T27 construct: purchased Eurofins DiscoverX KINOMEscan
Nature of the experiment: KINOMEscan at 1 μM, AURKA. Format: binding. The settings on record: 1000 nM, read-out: Percent Control.
From the text: as §2

For the next experiment, the target named is T28, MAST1 (Homo sapiens, UniProt Q9Y2H9).
T28 construct: purchased Eurofins DiscoverX KINOMEscan
Nature of the experiment: KINOMEscan binding assay at 1 μM, MAST1. To be noted: Compound Concentration 1000 nM; read-out: Percent Control.
From the text: as §2

The target of the next experiment is T29, MAP4K4 (Homo sapiens, UniProt O95819).
T29 construct: purchased Eurofins DiscoverX KINOMEscan
Nature of the experiment: KINOMEscan at 1 μM, MAP4K4. Format: binding. The settings on record: 1000 nM, read-out: Percent Control.
From the text: as §2

The target of experiment [4] is T30, ABL1(H396P)-phosphorylated (Homo sapiens, UniProt P00519, H396P).
T30 construct: purchased Eurofins DiscoverX KINOMEscan
Description: KINOMEscan at 1 μM, ABL1(H396P)-phosphorylated. Format: binding. To be noted: 1000 nM, read-out: Percent Control.
From the text: as §2

The target in another experiment is T31, FLT1 (Homo sapiens, UniProt P17948).
T31 construct: purchased Eurofins DiscoverX KINOMEscan
Description: KINOMEscan at 1 μM, FLT1. Format: binding. To be noted: 1000 nM, read-out: Percent Control.
From the text: as §2

A further experiment concerns the target T32, DCAMKL1 (Homo sapiens, UniProt O15075).
T32 construct: purchased Eurofins DiscoverX KINOMEscan
Description: KINOMEscan at 1 μM, DCAMKL1. Format: binding. The settings on record: 1000 nM, read-out: Percent Control.
From the text: as §2

Data on 2 molecules can be found in publication PMC9856672, “SGC-CAMKK2-1: A Chemical Probe for CAMKK2” (Cells, 2023).

T2 sequence (Q8IYT8 whole entry): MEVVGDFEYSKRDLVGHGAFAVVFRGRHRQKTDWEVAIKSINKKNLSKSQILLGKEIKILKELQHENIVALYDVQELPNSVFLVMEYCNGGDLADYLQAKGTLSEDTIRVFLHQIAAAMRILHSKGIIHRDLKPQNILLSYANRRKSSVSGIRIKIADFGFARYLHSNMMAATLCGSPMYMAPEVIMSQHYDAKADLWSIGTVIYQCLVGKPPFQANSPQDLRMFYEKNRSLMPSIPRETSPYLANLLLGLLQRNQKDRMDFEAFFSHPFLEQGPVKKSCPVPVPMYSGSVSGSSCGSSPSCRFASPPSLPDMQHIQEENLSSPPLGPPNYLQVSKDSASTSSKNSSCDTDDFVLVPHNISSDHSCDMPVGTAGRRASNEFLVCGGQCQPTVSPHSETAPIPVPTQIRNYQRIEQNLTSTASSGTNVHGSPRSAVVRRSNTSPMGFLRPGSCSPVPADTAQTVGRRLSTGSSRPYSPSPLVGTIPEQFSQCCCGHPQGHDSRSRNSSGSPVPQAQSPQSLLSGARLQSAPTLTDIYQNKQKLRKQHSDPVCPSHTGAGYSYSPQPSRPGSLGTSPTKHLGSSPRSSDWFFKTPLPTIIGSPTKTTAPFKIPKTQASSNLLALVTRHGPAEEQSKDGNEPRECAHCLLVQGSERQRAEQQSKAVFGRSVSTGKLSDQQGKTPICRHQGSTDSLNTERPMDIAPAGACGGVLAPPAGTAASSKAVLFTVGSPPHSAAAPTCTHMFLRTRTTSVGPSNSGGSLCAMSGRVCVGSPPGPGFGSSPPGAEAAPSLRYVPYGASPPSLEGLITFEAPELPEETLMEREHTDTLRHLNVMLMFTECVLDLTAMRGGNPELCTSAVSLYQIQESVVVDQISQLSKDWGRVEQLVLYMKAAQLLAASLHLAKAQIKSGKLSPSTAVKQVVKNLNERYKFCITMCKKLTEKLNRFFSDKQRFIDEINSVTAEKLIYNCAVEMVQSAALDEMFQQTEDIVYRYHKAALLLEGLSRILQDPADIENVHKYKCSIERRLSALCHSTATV
T7 sequence (P36894 24-532): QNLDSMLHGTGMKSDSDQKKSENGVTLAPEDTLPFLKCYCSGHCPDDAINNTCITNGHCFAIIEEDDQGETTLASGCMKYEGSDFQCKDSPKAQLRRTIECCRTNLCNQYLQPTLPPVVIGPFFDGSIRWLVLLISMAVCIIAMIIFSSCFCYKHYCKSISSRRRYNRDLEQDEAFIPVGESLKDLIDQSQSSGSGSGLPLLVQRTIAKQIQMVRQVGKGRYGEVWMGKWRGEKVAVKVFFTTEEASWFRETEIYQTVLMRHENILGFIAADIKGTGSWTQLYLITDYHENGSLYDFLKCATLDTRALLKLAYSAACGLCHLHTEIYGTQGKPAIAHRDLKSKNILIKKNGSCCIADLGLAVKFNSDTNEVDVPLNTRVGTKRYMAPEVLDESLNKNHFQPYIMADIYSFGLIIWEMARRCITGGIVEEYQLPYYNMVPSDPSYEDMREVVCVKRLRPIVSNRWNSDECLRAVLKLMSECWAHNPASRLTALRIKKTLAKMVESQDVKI
T16 sequence (P07332 whole entry): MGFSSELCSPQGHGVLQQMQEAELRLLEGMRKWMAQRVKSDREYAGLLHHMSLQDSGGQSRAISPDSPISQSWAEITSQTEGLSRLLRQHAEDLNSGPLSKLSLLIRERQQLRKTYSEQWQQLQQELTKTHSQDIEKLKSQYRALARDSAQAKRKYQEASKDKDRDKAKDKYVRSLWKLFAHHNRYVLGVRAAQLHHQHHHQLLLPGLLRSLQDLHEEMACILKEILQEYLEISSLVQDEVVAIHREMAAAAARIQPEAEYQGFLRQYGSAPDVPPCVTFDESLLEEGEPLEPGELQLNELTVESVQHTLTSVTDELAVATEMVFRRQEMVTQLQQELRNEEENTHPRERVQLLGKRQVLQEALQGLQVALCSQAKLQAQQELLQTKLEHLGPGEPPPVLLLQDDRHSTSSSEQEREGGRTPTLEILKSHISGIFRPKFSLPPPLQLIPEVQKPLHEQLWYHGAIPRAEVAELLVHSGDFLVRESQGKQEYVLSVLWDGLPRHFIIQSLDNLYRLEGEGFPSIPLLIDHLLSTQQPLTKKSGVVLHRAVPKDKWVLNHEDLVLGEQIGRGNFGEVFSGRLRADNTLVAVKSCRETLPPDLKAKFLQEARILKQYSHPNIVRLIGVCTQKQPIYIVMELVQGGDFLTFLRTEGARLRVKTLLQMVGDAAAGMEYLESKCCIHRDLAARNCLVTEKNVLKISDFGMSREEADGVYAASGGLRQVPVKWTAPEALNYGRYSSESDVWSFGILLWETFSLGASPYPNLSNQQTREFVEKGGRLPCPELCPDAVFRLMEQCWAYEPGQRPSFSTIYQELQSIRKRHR
T24 sequence (P45983 whole entry): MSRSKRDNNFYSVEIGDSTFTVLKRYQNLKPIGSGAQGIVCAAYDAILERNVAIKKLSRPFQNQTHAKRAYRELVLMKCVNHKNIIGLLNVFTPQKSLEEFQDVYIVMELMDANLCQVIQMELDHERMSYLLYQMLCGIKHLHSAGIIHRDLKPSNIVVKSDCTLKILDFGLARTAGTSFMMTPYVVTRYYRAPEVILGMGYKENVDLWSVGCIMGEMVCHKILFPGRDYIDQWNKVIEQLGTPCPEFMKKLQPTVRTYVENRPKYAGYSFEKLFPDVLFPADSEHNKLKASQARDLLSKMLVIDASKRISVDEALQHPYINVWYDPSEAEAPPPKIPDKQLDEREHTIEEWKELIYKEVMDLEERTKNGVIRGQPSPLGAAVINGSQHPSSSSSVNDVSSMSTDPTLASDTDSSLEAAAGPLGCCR
T8 sequence (P50750 whole entry): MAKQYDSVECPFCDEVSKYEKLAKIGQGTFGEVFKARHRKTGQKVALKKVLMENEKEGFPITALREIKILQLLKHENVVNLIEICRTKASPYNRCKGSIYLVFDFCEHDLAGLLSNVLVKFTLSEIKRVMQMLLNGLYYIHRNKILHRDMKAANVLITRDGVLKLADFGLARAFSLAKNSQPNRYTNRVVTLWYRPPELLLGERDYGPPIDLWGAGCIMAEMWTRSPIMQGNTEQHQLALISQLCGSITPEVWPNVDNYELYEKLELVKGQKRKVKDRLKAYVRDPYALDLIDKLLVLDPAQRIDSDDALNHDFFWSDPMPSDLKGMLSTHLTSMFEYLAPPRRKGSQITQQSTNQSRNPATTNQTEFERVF
T6 sequence (Q9Y4K4 whole entry): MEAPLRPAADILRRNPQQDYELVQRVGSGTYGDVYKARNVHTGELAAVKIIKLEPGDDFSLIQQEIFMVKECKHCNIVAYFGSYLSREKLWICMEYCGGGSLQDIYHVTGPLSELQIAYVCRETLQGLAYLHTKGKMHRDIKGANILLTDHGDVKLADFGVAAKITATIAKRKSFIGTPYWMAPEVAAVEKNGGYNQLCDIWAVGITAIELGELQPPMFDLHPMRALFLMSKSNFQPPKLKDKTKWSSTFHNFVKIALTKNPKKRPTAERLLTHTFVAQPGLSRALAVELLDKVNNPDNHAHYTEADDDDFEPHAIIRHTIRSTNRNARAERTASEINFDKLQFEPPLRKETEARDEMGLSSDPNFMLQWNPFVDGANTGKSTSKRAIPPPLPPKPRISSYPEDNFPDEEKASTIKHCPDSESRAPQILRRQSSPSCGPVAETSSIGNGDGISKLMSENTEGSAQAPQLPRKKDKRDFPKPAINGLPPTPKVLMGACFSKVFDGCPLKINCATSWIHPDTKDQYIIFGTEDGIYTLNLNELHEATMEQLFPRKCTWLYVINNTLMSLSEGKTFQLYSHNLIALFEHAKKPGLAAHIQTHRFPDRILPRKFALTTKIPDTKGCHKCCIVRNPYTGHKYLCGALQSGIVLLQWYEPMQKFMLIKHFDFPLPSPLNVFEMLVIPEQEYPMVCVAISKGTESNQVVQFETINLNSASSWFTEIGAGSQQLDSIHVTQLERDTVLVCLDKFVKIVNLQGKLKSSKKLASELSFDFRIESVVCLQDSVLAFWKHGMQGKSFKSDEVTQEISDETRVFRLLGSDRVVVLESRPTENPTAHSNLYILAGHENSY
T10 sequence (P10721 26-976 V559D/T670I): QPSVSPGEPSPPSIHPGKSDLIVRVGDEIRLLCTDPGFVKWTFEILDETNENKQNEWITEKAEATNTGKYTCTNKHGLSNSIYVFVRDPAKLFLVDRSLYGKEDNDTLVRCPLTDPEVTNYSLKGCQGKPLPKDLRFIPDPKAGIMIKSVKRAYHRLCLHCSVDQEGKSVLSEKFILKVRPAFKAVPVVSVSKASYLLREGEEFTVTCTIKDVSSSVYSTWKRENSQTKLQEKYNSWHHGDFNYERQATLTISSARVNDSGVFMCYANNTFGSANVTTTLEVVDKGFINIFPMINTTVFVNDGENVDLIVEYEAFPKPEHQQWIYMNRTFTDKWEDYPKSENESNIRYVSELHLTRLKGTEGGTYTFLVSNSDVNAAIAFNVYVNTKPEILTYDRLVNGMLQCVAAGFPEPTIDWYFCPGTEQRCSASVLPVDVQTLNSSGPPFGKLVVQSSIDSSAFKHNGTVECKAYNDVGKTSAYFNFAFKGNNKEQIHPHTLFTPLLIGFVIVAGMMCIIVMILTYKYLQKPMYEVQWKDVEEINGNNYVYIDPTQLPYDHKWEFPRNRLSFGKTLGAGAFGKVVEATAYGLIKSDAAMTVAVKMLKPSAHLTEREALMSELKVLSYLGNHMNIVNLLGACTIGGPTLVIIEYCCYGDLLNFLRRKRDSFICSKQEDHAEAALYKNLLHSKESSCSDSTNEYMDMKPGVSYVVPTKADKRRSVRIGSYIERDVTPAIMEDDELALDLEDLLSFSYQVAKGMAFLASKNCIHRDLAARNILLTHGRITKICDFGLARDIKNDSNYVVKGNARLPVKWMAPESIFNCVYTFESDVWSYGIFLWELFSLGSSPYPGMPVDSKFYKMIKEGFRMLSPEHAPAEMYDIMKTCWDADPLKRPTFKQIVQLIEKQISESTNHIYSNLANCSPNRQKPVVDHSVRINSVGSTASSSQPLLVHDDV

With `Cc1cccc(-c2cnc3occ(-c4ccc(C(=O)O)c(C5CCCC5)c4)c3c2)c1` [SGC-CAMKK2-1 (YL-36)], the remaining binding at 1 µM in [1] is 100%; at ULK2 [2] it was 100%; at MERTK, 100%; at INSRR it was 88%; on GRK4, 100%; on MAP4K5, 100%. Moreover, the remaining binding at 1 µM on BMPR1A was 100%; at CDK9, 93%; at FLT3(K663Q), 100%; on KIT(V559D,T670I), 100%; on CSNK1G1, 100%; on PRKG1, 100%. Also, the remaining binding at 1 µM at MEK4 is 100%; on ROS1, 84%; on TAOK1, 78%; on FES, 88%.

Turning to `O=C(O)c1ccc(-c2coc3ncc(-c4ccccc4)cc23)cc1Cl` [SGC-CAMKK2-1N (UNC-YL-83)], the remaining binding at 1 µM on CAMK1D amounted to 61%; on ERBB3, 64%; on MRCKB, 100%; on GAK it was 88%; on ULK2 [3], 71%; on HASPIN, 100%. Further, the remaining binding at 1 µM is 74% on MAP3K1; 100% at PKAC-alpha; 81% at JNK1; 93% at WEE2; 62% at NEK11; 74% at AURKA. For the same molecule, the remaining binding at 1 µM on MAST1 amounted to 100%; at MAP4K4, 94%; in [4], 74%; on FLT1 it was 76%; on DCAMKL1, 100%.
